Test results reported in the NIST ThermoML archive (doi:10.1021/je1013476).
± gives the expanded uncertainty stated by the source.

Settings: 101.33 kPa, Liquid; for viscosity: Capillary tube (Ostwald / Ubbelohde) method; for mass density: Vibrating tube method

SMILES | viscosity (288.15 K) [mPa·s] | mass density (288.15 K) [kg/m3] | viscosity (293.15 K) [mPa·s] | mass density (293.15 K) [kg/m3] | viscosity (298.15 K) [mPa·s] | mass density (298.15 K) [kg/m3] | viscosity (303.15 K) [mPa·s] | mass density (303.15 K) [kg/m3] | viscosity (313.15 K) [mPa·s] | mass density (313.15 K) [kg/m3]
CCOC(=O)OCC [diethyl carbonate] | 0.864 ± 0.009 | 980.39 ± 0.07 | 0.803 ± 0.008 | 974.83 ± 0.07 | 0.757 ± 0.008 | 969.15 ± 0.08 | 0.7 ± 0.007 | 963.39 ± 0.08 | 0.616 ± 0.006 | 952.1 ± 0.08
CCO [ethanol] | 1.313 ± 0.013 | 793.65 ± 0.12 | 1.216 ± 0.012 | 789.34 ± 0.12 | 1.132 ± 0.011 | 785.07 ± 0.12 | 1.01 ± 0.01 | 780.72 ± 0.12 | 0.824 ± 0.008 | 771.97 ± 0.13
CCCCCCCCO [octan-1-ol] | 11.07 ± 0.1 | 828.63 ± 0.12 | 9.161 ± 0.085 | 825.2 ± 0.12 | 7.688 ± 0.072 | 821.74 ± 0.12 | 6.404 ± 0.06 | 818.23 ± 0.12 | 4.62 ± 0.044 | 811.22 ± 0.12
CCCCCO [pentan-1-ol] | 4.682 ± 0.045 | 818.32 ± 0.13 | 4.025 ± 0.039 | 814.63 ± 0.13 | 3.497 ± 0.034 | 810.96 ± 0.13 | 3.022 ± 0.029 | 807.26 ± 0.13 | 2.312 ± 0.023 | 799.78 ± 0.14
CCCO [propan-1-ol] | 2.507 ± 0.024 | 807.55 ± 0.12 | 2.202 ± 0.021 | 803.52 ± 0.13 | 1.973 ± 0.019 | 799.45 ± 0.13 | 1.733 ± 0.017 | 795.47 ± 0.13 | 1.381 ± 0.014 | 787.28 ± 0.13
